Where a SMILES comes first, the peptide text is derived from it. [ ]: non-standard residue; d: D form. The star is where a group is joined. X1 = N=C(N)NCCC[C@H](N)C(=O)N[C@@H](Cc1c[nH]cn1)C(=O)N1CCC[C@H]1C(=O)N[C@@H](CS*)C(=O)O; pGlu = O=C1CC[C@@H](C(=O)O)N1
How the values were obtained:
[1] = format: in vitro ADME, rat
Experimental: C-AVP 4-9 series compound can be hydrolyzed in brain by the action of prolyl endopeptidase, and it is considered that they are converted to AVP 4-9.
Therefore, 500 μM of C-AVP 4-9-000 were incubated (6 hr., 37° C.) with a rat cerebral homogenate (100 μg/rat) in the presence or in the absence of carbobenzoyloxy prolyl-prolinal (ZPP, 20 μM) as known as a potent inhibitor for propyl endopeptitase. After incubation metabolites were extracted with methanol. The metabolites were analyzed by HPLC. Further, ZPP is a specific inhibitor for prolyl endopeptidase. After methanol extraction, the metabolites were quantitated by the separation with HPLC.

[2] = Evaluation of brain transition (CNS distribution after i.v. administration); details: mouse, in vivo, iv
Experimental: C-AVP 4-9-000 (389 Ci/mmol) labeled with ^125I by the chloramine-T method was administered (i.v.) to mice in 1 μCi, ^125I-C-AVP 4-9-000 in plasma was quantitated by separating the methanol extract using Radio-HPLC.
In the case of AS22, the radioactivity contained in the trifluoroacetic acid precipitate fraction was made the ^125I-AS22 amount. Further, ^125I-C-AVP 4-9-000 was quantitated by separating the methanol extract using Radio-HPLC.

[3] = PI value by isoelectrofocusing (capillary electrophoresis); format: physicochemical; details: peptide 5 μg, UV 214 nm
Experimental: Further, the PI value was analyzed by the isoelectrofocusing method for the peptide 5 μg using a capillary electrophoretic apparatus (Beckman P/ACE 5000) and an isoelectrofocusing kit (eCAP 3-10, Beckman). The detection was carried out by UV 214 nm.

[4] = tested on: rats; test: Passive avoidance test, administration 180 min before retention test; format: in vivo; details: rat, s.c., administered 3 hr before retention test
Experimental: The test solution in which each of these test drugs dissolved in saline was subcutaneously administered to rats. As to animals, male Wister rats (aged 7-9 weeks) were bought from Japan Charles River (JCR) and used after the preliminary feeding for more than one week. At the time of the preliminary feeding it lighted up from AM 8.00 to PM 8.00.
It was carried out by partially modifying the method of Ader R. R. (Psycon. Sci., 26, p125-128, 1972). Namely, rats were let stay in a light room of the passive avoidance test apparatus consisting of a light and dark rooms, and were let move freely for 2 min. After 45 min., the rats were let stay again in the light room. When the rats went into the dark room, the electric current 0.3 mA was applied for 30 sec. by Muromachikikai SGS-002 on the floor of the dark room. Further, in all processes of the experiment the rats were let move freely between the dark room and the light room. Each peptide was subcutaneously administered at 23 hr. (1 hr. before the retention test) after the electric shock. Subsequently, the rats were let stay in the light room after 1 hr. (24 hr. after the electric shock), the time (latency) when the rats went into the dark room was measured (retention test).
The test was carried out according to the test 2 except that the administration of the test solution was made at 21 hr. […]

Row | Compound | formation of AVP 4-9 after 6 hour's incubation [1] | parent remaining after 6 hour's incubation ([1]; rat, brain homogenate, 6 h) | transition into brain [2] | PI values [3] | effectiveness in passive avoidance (latency) [4]
1 | N=C(N)NCCC[C@H](NC(=O)[C@@H]1CCCN1C(=O)[C@H](CSSC[C@H](NC(=O)[C@@H]1CCCN1C(=O)[C@H](Cc1c[nH]cn1)NC(=O)[C@@H](N)CCCNC(=N)N)C(=O)O)NC(=O)[C@H](CC(N)=O)NC(=O)[C@@H]1CCC(=O)N1)C(=O)NCC(N)=O [C-AVP 4-9-000] ([pGlu]NC(X1)PRG-NH2) | the formation of AVP 4-9 was observed | scarcely remained | transited into brain in a sufficient concentration | – | –
2 | pGlu-Asn-Cys-Pro-Arg-Gly-NH2 ([pGlu]NCPRG-NH2) [AVP 4-9, 4-9 fragment of arginine vasopressin, control drug] | – | – | – | 9.27 | did not show any significant effectiveness

Reference: patent publication US6589937B1, “Peptides and nootropic agent” (Kabushiki Kaisha Yakult Honsha, priority 1996, dated 2003)
